In patent publication US11969428B2, “Methods and pharmaceutical compositions for treating lymphoid malignancy” (priority 2011, dated 2024):

Columns and labels:
Assay in all cases: Ambit KinomeScan screening
Type in all cases: binding
Conditions in all cases: CAL-130 10 μM
[1] = target: T1, CSNK2A1 (Homo sapiens, UniProt P68400)
T1 construct: purchased Ambit (KinomeScan screening service)
Method in brief: (§1)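 Here, % of control binding was determined for tagged kinases captured by an immobilized ligand in the presence of 10 μM CAL-130. Stronger interactions give lower percentages.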

[2] = target: T2, PCTK1 (Homo sapiens, UniProt Q00536)
T2 construct: unspecified tag ('tagged kinases'); purchased Ambit (KinomeScan screening)
Method in brief: as §1

[3] = target: T3, ULK3 (Homo sapiens, UniProt Q6PHR2)
T3 construct: tag, kind not specified; purchased Ambit (KinomeScan screening service)
Method in brief: as §1

[4] = target: T4, RPS6KA1 (Homo sapiens, UniProt Q15418)
T4 construct: unspecified tag (tagged kinase); purchased Ambit (KinomeScan screening)
Method in brief: as §1

[5] = target: T5, CTK (Homo sapiens, UniProt P42679)
T5 construct: purchased Ambit (KinomeScan screening service)
Method in brief: as §1

[6] = target: T6, DCAMKL2 (Homo sapiens, UniProt Q8N568)
T6 construct: unspecified tag ("tagged kinases"); purchased Ambit (KinomeScan screening service)
Method in brief: as §1

[7] = target: T7, MARK4 (Homo sapiens, UniProt Q96L34)
T7 construct: purchased Ambit (KinomeScan screening)
Method in brief: as §1

[8] = test system: FLT3(ITD)
Method in brief: as §1

[9] = target: T8, BRAF(V600E) (Homo sapiens, UniProt P15056, V600E)
T8 construct: unspecified tag ("tagged kinases"); purchased Ambit (KinomeScan screening)
Method in brief: as §1

[10] = target: T9, RPS6KA3 (Homo sapiens, UniProt P51812)
T9 construct: unspecified tag (tagged kinase); purchased Ambit (KinomeScan screening)
Method in brief: as §1

[11] = target: T10, MST2 (Homo sapiens, UniProt Q13188)
T10 construct: unspecified tag ('tagged kinases'); purchased Ambit (KinomeScan screening)
Method in brief: as §1

[12] = target: T11, PCTK3 (Homo sapiens, UniProt Q07002)
T11 construct: unspecified tag ('tagged kinases'); purchased Ambit (KinomeScan screening)
Method in brief: as §1

[13] = target: T12, SIK (Homo sapiens, UniProt P57059)
T12 construct: tag, kind not specified; purchased Ambit (KinomeScan screening service)
Method in brief: as §1

[14] = target: T13, CHEK2 (Homo sapiens, UniProt O96017)
T13 construct: purchased Ambit (KinomeScan screening service)
Method in brief: as §1

[15] = target: T14, JNK2 (Homo sapiens, UniProt P45984)
T14 construct: purchased Ambit (KinomeScan screening)
Method in brief: as §1

[16] = target: T15, MAK (Homo sapiens, UniProt P20794)
T15 construct: unspecified tag ('tagged kinases'); purchased Ambit (KinomeScan screening service)
Method in brief: as §1

[17] = target: T16, SRPK3 (Homo sapiens, UniProt Q9UPE1)
T16 construct: purchased Ambit (KinomeScan screening service)
Method in brief: as §1

[18] = target: T17, PRKG2 (Homo sapiens, UniProt Q13237)
T17 construct: tag (kind not specified); purchased Ambit (KinomeScan screening service)
Method in brief: as §1

[19] = target: T18, EPHA3 (Homo sapiens, UniProt P29320)
T18 construct: purchased Ambit (KinomeScan screening service)
Method in brief: as §1

[20] = target: T19, BMPR1B (Homo sapiens, UniProt O00238)
T19 construct: purchased Ambit (KinomeScan screening service)
Method in brief: as §1

[21] = target: T20, GRK4 (Homo sapiens, UniProt P32298)
T20 construct: unspecified tag ('tagged kinases'); purchased Ambit (KinomeScan screening service)
Method in brief: as §1

[22] = target: T21, EGFR(G719S) (Homo sapiens, UniProt P00533, G719S)
T21 construct: unspecified tag; purchased Ambit (KinomeScan screening service)
Method in brief: as §1

[23] = target: T22, MLK3 (Homo sapiens, UniProt Q16584)
T22 construct: unspecified tag ('tagged kinases'); purchased Ambit (KinomeScan screening)
Method in brief: as §1

[24] = target: T23, HIPK1 (Homo sapiens, UniProt Q86Z02)
T23 construct: unspecified tag ('tagged kinases'); purchased Ambit (KinomeScan screening service)
Method in brief: as §1

[25] = target: T24, RET (Homo sapiens, UniProt P07949)
T24 construct: tag (kind not specified); purchased Ambit (KinomeScan screening service)
Method in brief: as §1

[26] = target: T25, ASK2 (Homo sapiens, UniProt O95382)
T25 construct: purchased Ambit (KinomeScan screening service)
Method in brief: as §1

[27] = target: T26, MST1R (Homo sapiens, UniProt Q04912)
T26 construct: unspecified tag ('tagged kinases'); purchased Ambit (KinomeScan screening)
Method in brief: as §1

[28] = target: T27, GSK3A (Homo sapiens, UniProt P49840)
T27 construct: unspecified tag ('tagged kinases'); purchased Ambit (KinomeScan screening service)
Method in brief: as §1

[29] = target: T28, ERK4 (Homo sapiens, UniProt P31152)
T28 construct: unspecified tag ("tagged kinases"); purchased Ambit (KinomeScan screening service)
Method in brief: as §1

[30] = target: T29, PAK3 (Homo sapiens, UniProt O75914)
T29 construct: purchased Ambit (KinomeScan screening service)
Method in brief: as §1

[31] = target: T30, ERK5 (Homo sapiens, UniProt Q13164)
T30 construct: unspecified tag ("tagged kinases"); purchased Ambit (KinomeScan screening service)
Method in brief: as §1

[32] = target: T31, TNNI3K (Homo sapiens, UniProt Q59H18)
T31 construct: unspecified tag (tagged kinase); purchased Ambit (KinomeScan screening)
Method in brief: as §1

[33] = target: T32, PKN2 (Homo sapiens, UniProt Q16513)
T32 construct: purchased Ambit (KinomeScan screening service)
Method in brief: as §1

[34] = target: T33, ROCK1 (Homo sapiens, UniProt Q13464)
T33 construct: unspecified tag (tagged kinase); purchased Ambit (KinomeScan screening)
Method in brief: as §1

[35] = target: T34, FLT3(D835Y) (Homo sapiens, UniProt P36888, D835Y)
T34 construct: unspecified tag; purchased Ambit (KinomeScan screening service)
Method in brief: as §1

[36] = target: T35, RIOK3 (Homo sapiens, UniProt O14730)
T35 construct: unspecified tag (tagged kinase); purchased Ambit (KinomeScan screening)
Method in brief: as §1

[37] = target: T36, GRK7 (Homo sapiens, UniProt Q8WTQ7)
T36 construct: unspecified tag ('tagged kinases'); purchased Ambit (KinomeScan screening service)
Method in brief: as §1

Measured: Percent of Control Binding

T10 sequence (Q13188 whole entry): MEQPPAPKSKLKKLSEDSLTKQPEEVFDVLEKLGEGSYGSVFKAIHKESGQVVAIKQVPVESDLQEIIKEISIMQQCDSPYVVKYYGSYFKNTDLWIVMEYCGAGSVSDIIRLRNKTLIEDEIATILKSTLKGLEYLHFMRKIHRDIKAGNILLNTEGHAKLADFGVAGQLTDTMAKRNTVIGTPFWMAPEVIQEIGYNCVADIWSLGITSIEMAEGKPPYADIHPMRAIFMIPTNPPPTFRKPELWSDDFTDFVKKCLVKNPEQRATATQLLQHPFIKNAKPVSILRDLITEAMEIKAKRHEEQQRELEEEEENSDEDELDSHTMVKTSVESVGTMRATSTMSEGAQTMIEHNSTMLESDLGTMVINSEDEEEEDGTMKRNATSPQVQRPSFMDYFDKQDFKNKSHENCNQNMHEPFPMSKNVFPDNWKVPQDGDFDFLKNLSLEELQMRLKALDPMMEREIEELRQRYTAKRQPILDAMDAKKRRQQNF
T4 sequence (Q15418 whole entry): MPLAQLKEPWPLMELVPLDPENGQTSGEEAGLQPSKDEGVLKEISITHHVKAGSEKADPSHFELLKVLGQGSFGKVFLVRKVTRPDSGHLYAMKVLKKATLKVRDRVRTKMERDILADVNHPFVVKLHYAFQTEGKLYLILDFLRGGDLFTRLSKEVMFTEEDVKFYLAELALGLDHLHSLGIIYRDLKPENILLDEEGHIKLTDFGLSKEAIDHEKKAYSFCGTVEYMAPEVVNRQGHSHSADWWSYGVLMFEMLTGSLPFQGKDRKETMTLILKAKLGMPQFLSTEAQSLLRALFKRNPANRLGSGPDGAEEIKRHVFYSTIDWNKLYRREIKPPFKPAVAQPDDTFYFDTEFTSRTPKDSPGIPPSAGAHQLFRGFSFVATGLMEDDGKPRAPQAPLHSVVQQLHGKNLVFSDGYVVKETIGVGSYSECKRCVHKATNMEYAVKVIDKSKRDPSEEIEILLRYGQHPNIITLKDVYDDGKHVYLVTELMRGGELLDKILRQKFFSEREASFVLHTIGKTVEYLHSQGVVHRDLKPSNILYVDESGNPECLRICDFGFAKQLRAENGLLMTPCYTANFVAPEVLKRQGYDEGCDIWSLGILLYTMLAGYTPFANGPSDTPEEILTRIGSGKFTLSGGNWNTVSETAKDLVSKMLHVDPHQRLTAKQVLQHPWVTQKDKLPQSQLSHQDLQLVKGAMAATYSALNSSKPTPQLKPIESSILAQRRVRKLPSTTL
T11 sequence (Q07002 whole entry): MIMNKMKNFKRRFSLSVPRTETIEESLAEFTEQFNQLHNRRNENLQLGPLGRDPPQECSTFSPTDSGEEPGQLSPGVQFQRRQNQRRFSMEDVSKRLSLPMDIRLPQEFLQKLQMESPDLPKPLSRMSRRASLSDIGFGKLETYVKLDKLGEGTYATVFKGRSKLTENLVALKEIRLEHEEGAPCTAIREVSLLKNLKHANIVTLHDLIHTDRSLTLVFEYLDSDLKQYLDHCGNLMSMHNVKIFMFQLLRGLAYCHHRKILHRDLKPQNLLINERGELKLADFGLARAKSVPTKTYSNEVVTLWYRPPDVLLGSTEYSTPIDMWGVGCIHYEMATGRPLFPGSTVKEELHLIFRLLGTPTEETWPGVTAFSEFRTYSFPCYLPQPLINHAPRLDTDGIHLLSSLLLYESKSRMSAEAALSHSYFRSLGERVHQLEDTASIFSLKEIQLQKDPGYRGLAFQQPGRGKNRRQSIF
T6 sequence (Q8N568 whole entry): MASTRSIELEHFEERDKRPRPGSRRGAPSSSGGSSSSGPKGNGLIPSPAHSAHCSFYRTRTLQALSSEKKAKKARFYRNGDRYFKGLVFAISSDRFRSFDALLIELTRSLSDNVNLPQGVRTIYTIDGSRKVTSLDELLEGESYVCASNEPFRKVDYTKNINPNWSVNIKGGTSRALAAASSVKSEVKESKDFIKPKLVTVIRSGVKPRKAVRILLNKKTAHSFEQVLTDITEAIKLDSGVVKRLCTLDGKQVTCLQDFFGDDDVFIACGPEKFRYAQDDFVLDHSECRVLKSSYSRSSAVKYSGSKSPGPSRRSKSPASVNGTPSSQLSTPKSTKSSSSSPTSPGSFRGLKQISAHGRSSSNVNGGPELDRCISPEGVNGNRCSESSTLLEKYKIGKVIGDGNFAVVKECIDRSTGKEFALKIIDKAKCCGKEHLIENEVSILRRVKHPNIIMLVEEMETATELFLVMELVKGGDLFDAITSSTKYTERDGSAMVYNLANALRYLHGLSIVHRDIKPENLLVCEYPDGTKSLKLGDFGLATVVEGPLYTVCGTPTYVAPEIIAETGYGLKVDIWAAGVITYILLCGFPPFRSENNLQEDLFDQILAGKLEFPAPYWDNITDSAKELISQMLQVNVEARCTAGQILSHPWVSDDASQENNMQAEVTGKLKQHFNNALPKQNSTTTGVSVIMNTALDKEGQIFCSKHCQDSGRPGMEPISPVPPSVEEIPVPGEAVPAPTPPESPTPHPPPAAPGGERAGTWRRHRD
T18 sequence (P29320 21-983): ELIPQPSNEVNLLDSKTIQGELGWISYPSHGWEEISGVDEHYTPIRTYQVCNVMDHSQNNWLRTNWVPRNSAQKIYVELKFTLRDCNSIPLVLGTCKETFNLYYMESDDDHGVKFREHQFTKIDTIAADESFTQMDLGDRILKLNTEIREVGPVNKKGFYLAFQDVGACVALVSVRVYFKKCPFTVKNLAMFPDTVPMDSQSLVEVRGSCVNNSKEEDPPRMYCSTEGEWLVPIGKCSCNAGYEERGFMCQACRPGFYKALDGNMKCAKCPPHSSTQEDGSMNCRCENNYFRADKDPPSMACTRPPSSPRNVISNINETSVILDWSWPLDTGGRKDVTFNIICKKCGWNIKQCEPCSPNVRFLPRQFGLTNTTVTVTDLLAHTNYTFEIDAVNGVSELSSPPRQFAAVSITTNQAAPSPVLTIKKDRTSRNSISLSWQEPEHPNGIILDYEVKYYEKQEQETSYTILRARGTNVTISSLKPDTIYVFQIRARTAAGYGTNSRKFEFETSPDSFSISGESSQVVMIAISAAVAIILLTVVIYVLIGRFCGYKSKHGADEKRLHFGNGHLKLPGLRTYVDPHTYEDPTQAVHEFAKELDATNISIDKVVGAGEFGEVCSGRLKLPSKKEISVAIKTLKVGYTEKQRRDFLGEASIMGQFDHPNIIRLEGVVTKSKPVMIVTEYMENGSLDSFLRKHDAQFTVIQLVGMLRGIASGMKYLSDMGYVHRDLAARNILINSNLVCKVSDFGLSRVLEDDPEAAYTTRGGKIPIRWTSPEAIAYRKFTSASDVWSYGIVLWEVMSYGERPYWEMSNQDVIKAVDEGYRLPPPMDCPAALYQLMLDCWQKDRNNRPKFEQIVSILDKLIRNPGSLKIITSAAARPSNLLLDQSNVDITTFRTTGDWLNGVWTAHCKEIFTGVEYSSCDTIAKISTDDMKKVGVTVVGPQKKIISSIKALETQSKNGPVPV
T13 sequence (O96017 whole entry): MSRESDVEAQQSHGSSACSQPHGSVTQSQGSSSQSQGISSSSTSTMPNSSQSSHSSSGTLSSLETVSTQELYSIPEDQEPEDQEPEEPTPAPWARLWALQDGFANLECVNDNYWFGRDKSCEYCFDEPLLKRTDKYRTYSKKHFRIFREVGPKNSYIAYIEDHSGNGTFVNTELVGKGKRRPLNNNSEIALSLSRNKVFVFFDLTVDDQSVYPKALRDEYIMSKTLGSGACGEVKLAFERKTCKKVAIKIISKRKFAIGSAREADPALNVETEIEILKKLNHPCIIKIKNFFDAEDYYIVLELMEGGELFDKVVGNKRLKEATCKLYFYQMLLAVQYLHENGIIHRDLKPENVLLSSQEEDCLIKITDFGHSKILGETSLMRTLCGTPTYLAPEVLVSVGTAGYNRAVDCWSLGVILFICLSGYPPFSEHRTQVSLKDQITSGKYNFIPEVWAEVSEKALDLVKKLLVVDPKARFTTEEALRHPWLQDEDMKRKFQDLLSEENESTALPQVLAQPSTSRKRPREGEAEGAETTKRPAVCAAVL
T28 sequence (P31152 whole entry): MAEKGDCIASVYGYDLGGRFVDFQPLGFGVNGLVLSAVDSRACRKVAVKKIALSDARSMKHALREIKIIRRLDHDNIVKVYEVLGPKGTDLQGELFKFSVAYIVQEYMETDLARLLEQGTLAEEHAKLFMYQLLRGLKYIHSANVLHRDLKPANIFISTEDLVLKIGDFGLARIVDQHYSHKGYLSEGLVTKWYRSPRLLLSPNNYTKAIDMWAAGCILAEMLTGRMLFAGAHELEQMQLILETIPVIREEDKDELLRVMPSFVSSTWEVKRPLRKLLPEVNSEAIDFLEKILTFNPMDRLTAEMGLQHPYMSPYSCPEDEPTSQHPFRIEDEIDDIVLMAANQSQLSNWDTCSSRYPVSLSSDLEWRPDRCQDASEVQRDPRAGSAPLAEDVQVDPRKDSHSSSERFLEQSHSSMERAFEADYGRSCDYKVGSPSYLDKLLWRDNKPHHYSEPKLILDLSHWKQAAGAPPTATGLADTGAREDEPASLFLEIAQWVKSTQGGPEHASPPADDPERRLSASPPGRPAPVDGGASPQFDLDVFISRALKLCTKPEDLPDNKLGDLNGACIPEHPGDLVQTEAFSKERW
T14 sequence (P45984 whole entry): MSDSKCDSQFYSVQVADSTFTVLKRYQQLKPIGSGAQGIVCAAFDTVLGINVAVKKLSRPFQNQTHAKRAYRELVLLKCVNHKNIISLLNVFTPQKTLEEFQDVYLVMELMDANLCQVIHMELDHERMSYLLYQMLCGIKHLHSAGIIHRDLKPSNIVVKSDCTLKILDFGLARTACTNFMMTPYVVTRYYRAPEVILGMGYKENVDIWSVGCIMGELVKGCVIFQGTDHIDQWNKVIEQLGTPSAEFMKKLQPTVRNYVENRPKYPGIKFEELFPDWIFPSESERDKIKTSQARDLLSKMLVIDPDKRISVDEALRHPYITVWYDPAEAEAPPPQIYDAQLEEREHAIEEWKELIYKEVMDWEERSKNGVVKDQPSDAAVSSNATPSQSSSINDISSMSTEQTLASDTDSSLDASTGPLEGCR

Cc1ccccc1-n1c(C(C)Nc2nc(N)nc3nc[nH]c23)nc2cccc(C)c2c1=O (stereo not shown) [CAL-130]
100%: all assays above
